Patent US20090247461A1, “METHODS FOR THERAPEUTIC TREATMENT OF PAIN” (priority 2004, published 2009)

Assays:
[1] = test system: sciatic nerve ligation injury model; assay: Heat test before and after administration of serotonin depletor, opioid antagonist, α- or β-adrenergic receptor blocker; assay type: in vivo, rat; conditions: 3 weeks after ligation; for heat test with vs without / before vs after the depletor or blocker, control group: saline control group, 5,7-DHT intradural, naloxone 5 mg/kg, propranolol 10 mg/kg
Procedure: (§1) A sciatic nerve ligation injury model was prepared by modifying the neuropathic pain model published by Bennett et al. according to the method of Takeba (Pain, Vol. 33, pp. 87-107, 1988; Ehime Igaku (Ehime Medical Journal), Vol. 21, pp. 192-206, 2002). Under anesthesia by inhalation of 3% halothane and nitrous oxide, bilateral sciatic nerves of 8- to 12-week old female Wistar rats (Clea Japan, Inc., Osaka) were exposed and ligated at the central level of the femur along with a 27-gauge injection needle on the both sides by using a 4-0 polyglycolic acid suture at 4 sites at intervals of 1 mm for both sides. Then, the injection needle was removed to prepare a sciatic nerve ligation injury model. The ligation was attained to such a degree that the crural muscles slightly contractable by a stimulus given to the nerve, and care was taken not to cause injury in the axon by the ligation operation itself.
A solution of ginsenoside Rb1 (0.10 or 0.50 μg/μl) in a volume of 120 μl or an equivalent volume of saline was intravenously administered by one-shot to rats 24 hours after the sciatic nerve ligation. Then, ginsenoside Rb1 was intravenously administered continuously by using the continuous injection pump at a dose of 12 μg/day (hereinafter referred to as “S12”) or 60 μg/day (hereinafter referred to as “S60”) and a rate of 0.25 μL/hour for 4 weeks. Similarly, saline was intravenously administered continuously for 4 weeks as the control group.
(§2) To determine thermal paw withdrawal latency, a heat test was performed by using Plantar Test produced by Ugo Basile (Planter test 7370, Ugo Basile, Italy) according to the method of Hargreaves et al. (Pain, Vol. 32, pp. 77-88, 1988). Rats were placed on a plastic table maintained at a temperature of 23 to 24° C. and stimulated on the sole by using a thermal stimulator, and withdrawal latency (seconds) was measured. Occurrence of hyperalgesia was determined on the basis of shortening of the latency. The latency was measured 3 times for both the soles always at an interval of 5 minutes, and the average of the results of 6 times in total of measurements was used as a measured value.
To elucidate the action mechanism of Rb1, examination was performed by using depletors or blockers against substances reported to be involved in the descending pain signal transmission in the spinal cord, such as serotonin depletors, opioid receptor antagonists, α-adrenergic receptor blockers, and β-adrenergic receptor blockers (Biol. Pharm. Bull., 22-7, pp. 691-697, 1999). The heat test was performed 24 hours after the sciatic nerve ligation, and only rats showing an average latency for both feet of 90% or lower of the same before the operation were used. Animals in a number of 48 in total were arbitrarily divided into 8 groups (6 animals per group) to prepare Rb1-administered groups and a control group. A serotonin depletor, opioid receptor antagonist, α-adrenergic receptor blocker and β-adrenergic receptor blocker were each administered 3 weeks after the ligation, the heat test was performed before and after the administration, and the results were compared.
The serotonin depletor, 5,7-dihydroxytryptamine (5,7-DHT, ICN Biomedicals Inc., Ohio, U.S.A), was intradurally administered in an amount of […] 1 week before the measurement, and the heat test was performed 3 weeks after the ligation. Further, the heat test was performed 3 weeks after the ligation, on the following day, 5 mg/kg of the opioid receptor antagonist, naloxone (USP, Rockville, U.S.A), 10 mg/kg of the β-adrenergic receptor blocker, propranolol (SIGMA-ALDRICH Co., St. Louis, U.S.A), and 20 mg/kg of the α-adrenergic receptor blocker, phentolamine (SIGMA-ALDRICH Co., St. Louis, U.S.A), were each subcutaneously injected, and the heat test was performed again one hour later.

[2] = test system: mice; conditions: cited from earlier work
[3] = test system: sciatic nerve ligation injury model; assay: Pressure test (von Frey withdrawal threshold) in sciatic nerve ligation injury model; assay type: in vivo, rat; conditions: continuously administered i.v. for 4 weeks from 24 hours after sciatic nerve ligation, vs saline control
Procedure: as §1, with “The ligation was attained to such a degree that the crural muscles slightly contractable by a stimulus given to the nerve, and care was taken not to cause injury in the axon by the ligation operation itself.” left out
To measure the pain threshold for a mechanical stimulus (von Frey withdrawal threshold), the von Frey hair test was performed in the same manner as in the Semmes-Weinstein test (Z. Gesamte Neurol. Psychiat., Vol. 79, pp. 324-333, 1922; Perceptual and Motor Skills, Vol. 14, pp. 351-354, 1962; The Journal of Hand Surgery, Vol. 3, pp. 211-216, 1978), which is clinically performed. […] In this procedure, the pain threshold (g) for the pressure stimuli to both the soles was measured twice for each time, and the average of the results obtained in measurements of 4 times in total was used as a measured value.

[4] = test system: transient forebrain ischemia; conditions: continuously injected into the brain ventricle for 7 days after ischemia, cited from earlier work
[5] = test system: transient forebrain ischemia; conditions: oral (red ginseng powder) or intraperitoneal (crude ginseng saponin, ginsenoside Rb1) over one week before ischemia; cited from earlier work
[6] = test system: sciatic nerve ligation injury model; assay: Heat test (thermal paw withdrawal latency) in sciatic nerve ligation injury model; assay type: in vivo, rat; conditions: continuously administered i.v. for 4 weeks from 24 hours after sciatic nerve ligation (12 or 60 μg/day); 3 weeks after the ligation and thereafter; vs saline control
Procedure: as §1, with “The ligation was attained to such a degree that the crural muscles slightly contractable by a stimulus given to the nerve, and care was taken not to cause injury in the axon by the ligation operation itself.” left out
as §2

[7] = test system: α2A-adrenergic receptor mRNA; assay: Measurement of α2A-adrenergic receptor mRNA in the spinal cord by RT-PCR; assay type: in vivo, rat; conditions: 60 μg/day i.v. continuously; 3 weeks after sciatic nerve ligation; compared with control group and sham operation group
Procedure: The spinal cord in the sciatic nerve innervation territory was removed from rats of the sham operation group (n=7) and rats 3 weeks after the sciatic nerve ligation (each n=7) which were intravenously administered with saline or 60 μg/day of ginsenoside Rb1 (S60) continuously from 24 hours after the sciatic nerve ligation, and total RNA was extracted by using ISOGEN (Nippon Gene, Tokyo). The extracted total RNA was treated with DNase, and single-stranded cDNA was synthesized by using oligo-dT primers and Moloney murine leukemia virus reverse transcriptase (Life Technologies, Rockville, USA). The sequences of the primers used in this example were as follows.
PCR was performed under the following condition using Taq polymerase (Takara, Tokyo). For β-actin, after a reaction at 94° C. for 5 minutes, a cycle of heat denaturation at 94° C. for 1 minute, annealing at 55° C. for 1 minute and 30 seconds and elongation at 72° C. for 1 minute and 30 seconds was repeated 25 times. For α2A-adrenergic receptor, after a reaction at 94° C. for 2 minutes, a cycle of heat denaturation at 94° C. for 1 minute, annealing at 60° C. for 1 minute and elongation at 72° C. for 1 minute was repeated 30 times. As the internal control, β-actin was used.

[8] = test system: α2A-adrenergic receptor protein; assay: Expression of α2A-adrenergic receptor protein in the spinal cord (immunoblot); assay type: in vivo, rat; conditions: 60 μg/day i.v. continuously; 3 weeks after sciatic nerve ligation; compared with control group and sham operation group
Procedure: The spinal cord in the sciatic nerve innervation territory was removed from rats of the sham operation group (n=3) and rats 3 weeks after the sciatic nerve ligation (each n=3) which were intravenously administered with saline or 60 μg/day of ginsenoside Rb1 (S60) continuously from 24 hours after the sciatic nerve ligation, added to 10 times in volume of 50 mM phosphate buffer, 100 μM pAPMSF, 0.5% Triton-X and 0.5% SDS, and homogenized. The homogenate was added with a half volume of 6% SDS (+β-mercaptoethanol), incubated at 99° C. for 10 minutes and centrifuged at 15,000 rpm and 4° C. for 10 minutes, and the supernatant was used as a sample. Electrophoresis was performed on 10% SDS polyacrylamide, and then the protein was transferred on a polyvinylidine difluoride membrane (Millipore, Bedford, U.S.A.) by using a transblotting apparatus. Western blotting was performed by using anti-α2A-adrenoceptor antibody (ALEXIS BIOCHEMICALS, San Diego, USA) as the primary antibody and anti-rabbit IgG conjugated with alkaline phosphatase (SIGMA Chemicals, St. Louis, U.S.A) as the secondary antibody.

SMILES: NCCc1c[nH]c2c(O)cc(O)cc12 [5,7-DHT, 5,7-dihydroxytryptamine, reference compound]
- heat test with vs without / before vs after the depletor or blocker, control group ([1]; phentolamine 20 mg/kg s.c.): no significant difference

SMILES: CC(C)=CCC[C@](C)(O[C@@H]1O[C@H](CO[C@@H]2O[C@@H](CO)[C@H](O)[C@H]2O)[C@@H](O)[C@H](O)[C@H]1O)[C@H]1CC[C@]2(C)[C@@H]1[C@H](O)C[C@@H]1[C@@]3(C)CC[C@H](O[C@@H]4O[C@H](CO)[C@@H](O)[C@H](O)[C@H]4O[C@@H]4O[C@H](CO)[C@@H](O)[C@H](O)[C@H]4O)C(C)(C)[C@@H]3CC[C@]12C [Rc, ginsenoside Rc]
- analgesic effect [2]: analgesic effect

SMILES: CC(C)=CCC[C@](C)(O[C@@H]1O[C@H](CO)[C@@H](O)[C@H](O)[C@H]1O)[C@H]1CC[C@]2(C)[C@@H]1[C@H](O)C[C@@H]1[C@@]3(C)CC[C@H](O[C@@H]4O[C@H](CO)[C@@H](O)[C@H](O)[C@H]4O[C@@H]4O[C@H](CO)[C@@H](O)[C@H](O)[C@H]4O)C(C)(C)[C@@H]3CC[C@]12C [Rd, ginsenoside Rd]
- analgesic effect [2]: analgesic effect

SMILES: CC(C)=CCC[C@](C)(O[C@@H]1O[C@H](CO)[C@@H](O)[C@H](O)[C@H]1O)[C@H]1CC[C@]2(C)[C@@H]1[C@H](O)C[C@@H]1[C@@]3(C)CC[C@H](O)C(C)(C)[C@@H]3[C@@H](O[C@@H]3O[C@H](CO)[C@@H](O)[C@H](O)[C@H]3O[C@@H]3O[C@@H](C)[C@H](O)[C@@H](O)[C@H]3O)C[C@]12C [Re, ginsenoside Re]
- analgesic effect [2]: analgesic effect

SMILES: CC(C)=CCC[C@](C)(O)[C@H]1CC[C@]2(C)[C@@H]1[C@H](O)C[C@@H]1[C@@]3(C)CC[C@H](O)C(C)(C)[C@@H]3[C@@H](O[C@@H]3O[C@H](CO)[C@@H](O)[C@H](O)[C@H]3O[C@@H]3O[C@H](CO)[C@@H](O)[C@H](O)[C@H]3O)C[C@]12C [Rf, ginsenoside Rf]
- analgesic effect [2]: analgesic effect

SMILES: CC(C)=CCC[C@](C)(O[C@@H]1O[C@H](CO[C@@H]2O[C@H](CO)[C@@H](O)[C@H](O)[C@H]2O)[C@@H](O)[C@H](O)[C@H]1O)[C@H]1CC[C@]2(C)[C@@H]1[C@H](O)C[C@@H]1[C@@]3(C)CC[C@H](O[C@@H]4O[C@H](CO)[C@@H](O)[C@H](O)[C@H]4O[C@@H]4O[C@H](CO)[C@@H](O)[C@H](O)[C@H]4O)C(C)(C)[C@@H]3CC[C@]12C [ginsenoside Rb1]
- allodynia (pressure test, von Frey pain threshold) [3]: allodynia was not ameliorated
- allodynia (pressure test, von Frey pain threshold) ([3]; listed as Rb1): amelioration of allodynia was not observed
- heat test, animals administered vs not administered with 5,7-DHT, Rb1-administered groups ([1]; 5,7-DHT intradurally 60 μL g 1 week before measurement): no significant difference
- heat test before and after administration of naloxone, Rb1-administered groups ([1]; naloxone 5 mg/kg s.c., heat test again one hour later): no significant difference
- hyperalgesia suppressing effect after administration of phentolamine, Rb1-administered groups ([1]; phentolamine 20 mg/kg s.c., heat test again one hour later): significantly inhibited
- heat test before and after administration of propranolol, Rb1-administered groups ([1]; propranolol 10 mg/kg s.c., heat test again one hour later): no significant difference
- delayed nerve cell death in the hippocampus CA1 region [4]: significantly reduced
- response latency in a passive avoidance learning experiment ([4]; dose-dependent, compared with a control): significantly prolonged
- delayed nerve cell death [5]: inhibition of delayed nerve cell death
- learning and behavioral impairment [5]: improvement of learning and behavioral impairment
- hyperalgesia (heat test, withdrawal latency) [6]: hyperalgesia was significantly relieved
- expression level of the α2A-adrenergic receptor mRNA in the spinal cord [7]: significantly increased
- expression level of the α2A-adrenergic receptor protein in the spinal cord [8]: significantly increased

SMILES: C=CCN1CC[C@]23c4c5ccc(O)c4O[C@H]2C(=O)CC[C@@]3(O)[C@H]1C5 [naloxone, reference compound]
- heat test with vs without / before vs after the depletor or blocker, control group ([1]; phentolamine 20 mg/kg s.c.): no significant difference

SMILES: Cc1ccc(N(CC2=NCCN2)c2cccc(O)c2)cc1 [phentolamine, reference compound]
- heat test with vs without / before vs after the depletor or blocker, control group ([1]; phentolamine 20 mg/kg s.c.): no significant difference

SMILES: CC(C)NCC(O)COc1cccc2ccccc12 (stereo not drawn) [propranolol, reference compound]
- heat test with vs without / before vs after the depletor or blocker, control group ([1]; phentolamine 20 mg/kg s.c.): no significant difference
